For orientation: IC50 means the concentration needed to halve the response being measured.

The subject of test [1] is MOLM-13 cells (human acute myeloid leukemia cells). The experiment in a line: MOLM-13 Cellular Assay. The format is cell-based. To be noted: 72 hours exposure, cell viability by CellTiter-Glo. In outline: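 MOLM-13 AML cells, seeded at 5,000/well in RPMI 1640 with 10% FBS, were treated with compounds right after seeding for 72 h at 37 °C, 5% CO2. Viability read by CellTiter-Glo luminescence.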
Background: In ATP-based viability assays light output follows the ATP content of the culture.

The next test concerns the target human DHODH (Homo sapiens (Human), UniProt Q02127). The experiment in a line: DHODH Enzymatic Assay. To be noted: purified human DHODH, DCIP absorbance, end-point mode; read-out: hDHODH IC50. The format is biochemical. In outline:
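Purified human DHODH in […] HEPES pH 7.5, 150 mM NaCl, 0.5 mM EDTA, 0.1% Triton X-100; reaction started with substrate mix of 20 mM DHO, 5 mM CoQ6, 1 mM DCIP. End-point read as DCIP reduction (absorbance ~600 nm) after brequinar quench.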

Molecules are shown by their SMILES.

Chain of human DHODH (Q02127 whole entry): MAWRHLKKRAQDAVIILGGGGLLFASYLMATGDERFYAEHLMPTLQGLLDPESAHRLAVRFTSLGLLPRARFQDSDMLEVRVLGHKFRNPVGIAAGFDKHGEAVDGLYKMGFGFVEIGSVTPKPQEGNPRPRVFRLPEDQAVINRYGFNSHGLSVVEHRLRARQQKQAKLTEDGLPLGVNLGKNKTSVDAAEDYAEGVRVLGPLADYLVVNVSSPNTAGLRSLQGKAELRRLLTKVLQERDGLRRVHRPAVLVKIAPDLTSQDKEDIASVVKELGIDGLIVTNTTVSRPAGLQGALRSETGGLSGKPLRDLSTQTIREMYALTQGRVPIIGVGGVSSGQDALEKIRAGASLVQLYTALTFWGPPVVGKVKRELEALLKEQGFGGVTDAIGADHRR

For the molecule `CCn1c(CO)nn(-c2cc3c([C@@H](C)C(F)(F)F)nn(-c4ccccc4C)c(=O)c3cc2F)c1=O` (single isomer, unassigned) [Example 57, (R*)-6-(4-Ethyl-3-(hydroxymethyl)-5-oxo-4,5-dihydro-1H-1,2,4-triazol-1-yl)-7-fluoro-2-(o-tolyl)-4-(1,1,1-trifluoropropan-2-yl)phthalazin-1(2H)-one], the concentration for half-maximal inhibition (IC50) in test [1] (Homo sapiens, MOLM-13, 72 h) was 1 nM; on human DHODH it was 1.15 nM.

For the molecule `CCn1c(CO)nn(-c2ccc3c(=O)n(-c4cccc(F)c4)cc(C(C)C)c3c2)c1=O` [Example 2, 6-(4-Ethyl-3-(hydroxymethyl)-5-oxo-4,5-dihydro-1H-1,2,4-triazol-1-yl)-2-(3-fluorophenyl)-4-isopropylisoquinolin-1(2H)-one], the IC50 turned out to be 40 nM in test [1] (Homo sapiens, MOLM-13, 72 h) and 75.9 nM on human DHODH.

Regarding `CCn1c(CO)nn(-c2cc3c([C@H](C)C(F)(F)F)nn(-c4ccccc4C)c(=O)c3cc2F)c1=O` (single isomer, unassigned) [Example 56, (S*)-6-(4-Ethyl-3-(hydroxymethyl)-5-oxo-4,5-dihydro-1H-1,2,4-triazol-1-yl)-7-fluoro-2-(o-tolyl)-4-(1,1,1-trifluoropropan-2-yl)phthalazin-1(2H)-one], the IC50 in test [1] (Homo sapiens, MOLM-13, 72 h) turned out to be 2 nM; on human DHODH, 2.31 nM.

Regarding `CCn1c(CO)nn(-c2cc3c(C(C)C)cn(-c4ccnc(OC)c4Cl)c(=O)c3cc2F)c1=O` [Example 106, 2-(3-Chloro-2-methoxypyridin-4-yl)-6-(4-ethyl-3-(hydroxymethyl)-5-oxo-4,5-dihydro-1H-1,2,4-triazol-1-yl)-7-fluoro-4-isopropylisoquinolin-1(2H)-one], the IC50 in test [1] (Homo sapiens, MOLM-13, 72 h) was determined as 10 nM; at human DHODH it was 4.88 nM.

As to `CCn1c(CO)nn(-c2cc3c(C(C)C)cn(-c4ccccc4C(F)F)c(=O)c3cc2F)c1=O` [Example 105, 2-(2-(Difluoromethyl)phenyl)-6-(4-ethyl-3-(hydroxymethyl)-5-oxo-4,5-dihydro-1H-1,2,4-triazol-1-yl)-7-fluoro-4-isopropylisoquinolin-1(2H)-one], the half-inhibitory concentration (IC50) in test [1] was 0.2 nM; in test [1] (Homo sapiens, MOLM-13, 72 h), not above 0.2 nM; on human DHODH, 0.528 nM.

For the molecule `CCn1c(CO)nn(-c2ccc3c(=O)n(-c4cccc(F)c4)nc(C(C)C)c3c2)c1=O` [Example 18, 6-(4-Ethyl-3-(hydroxymethyl)-5-oxo-4,5-dihydro-1H-1,2,4-triazol-1-yl)-2-(3-fluorophenyl)-4-isopropylphthalazin-1(2H)-one], the half-maximal inhibitory concentration (IC50) in test [1] (Homo sapiens, MOLM-13, 72 h) is 30 nM; on human DHODH it was 80.7 nM.

For the molecule `CCC(CC)n1cc(C(C)C)c2cc(-n3nc(CO)n(CC)c3=O)c(F)cc2c1=O` [Example 122, 6-(4-Ethyl-3-(hydroxymethyl)-5-oxo-4,5-dihydro-1H-1,2,4-triazol-1-yl)-7-fluoro-4-isopropyl-2-(pentan-3-yl)isoquinolin-1(2H)-one], the IC50 in test [1] (Homo sapiens, MOLM-13, 72 h) is 10 nM; on human DHODH, 13.4 nM.

With `CCn1c(CO)nn(-c2cc3c(C(C)C)cn(-c4cnsc4C)c(=O)c3cc2F)c1=O` [Example 132, 6-(4-Ethyl-3-(hydroxymethyl)-5-oxo-4,5-dihydro-1H-1,2,4-triazol-1-yl)-7-fluoro-4-isopropyl-2-(5-methylisothiazol-4-yl)isoquinolin-1(2H)-one], the 50% inhibitory concentration (IC50) in test [1] (Homo sapiens, MOLM-13, 72 h) came to 4 nM; on human DHODH, 3.72 nM.

As for `CCn1c(CO)nn(-c2nc3c([C@@H](C)C(F)(F)F)cn(-c4ccccc4C)c(=O)c3cc2F)c1=O` [Example 38, (R)-2-(4-Ethyl-3-(hydroxymethyl)-5-oxo-4,5-dihydro-1H-1,2,4-triazol-1-yl)-3-fluoro-6-(o-tolyl)-8-(1,1,1-trifluoropropan-2-yl)-1,6-naphthyridin-5(6H)-one], the IC50 was 0.5 nM in test [1] (Homo sapiens, MOLM-13, 72 h) and 0.464 nM on human DHODH.

`CCn1c(CO)nn(-c2cc3c(C(C)C)cn(-c4cc(F)ccc4C)c(=O)c3cc2F)c1=O` [Example 67, 6-(4-Ethyl-3-(hydroxymethyl)-5-oxo-4,5-dihydro-1H-1,2,4-triazol-1-yl)-7-fluoro-2-(5-fluoro-2-methylphenyl)-4-isopropylisoquinolin-1(2H)-one]: the IC50 was determined as 0.9 nM in test [1] (Homo sapiens, MOLM-13, 72 h) and 0.605 nM at human DHODH.

With `CCn1c(CO)nn(-c2cc3c(C(C)C)cn(-c4cc(OC)ncc4C)c(=O)c3cc2F)c1=O` [Example 113, 6-(4-Ethyl-3-(hydroxymethyl)-5-oxo-4,5-dihydro-1H-1,2,4-triazol-1-yl)-7-fluoro-4-isopropyl-2-(2-methoxy-5-methylpyridin-4-yl)isoquinolin-1(2H)-one], the IC50 in test [1] (Homo sapiens, MOLM-13, 72 h) stood at 3 nM; on human DHODH, 2.1 nM.

`CCn1c(CO)nn(-c2cc3c(C(C)C)cn(-c4ncccc4C)c(=O)c3cc2F)c1=O` [Example 118, 6-(4-Ethyl-3-(hydroxymethyl)-5-oxo-4,5-dihydro-1H-1,2,4-triazol-1-yl)-7-fluoro-4-isopropyl-2-(3-methylpyridin-2-yl)isoquinolin-1(2H)-one]: the IC50 in test [1] (Homo sapiens, MOLM-13, 72 h) worked out at 10 nM; at human DHODH, 14.8 nM.

`CCn1c(CO)nn(-c2cc3c(C(C)C)cn(C4CCCC4)c(=O)c3cc2F)c1=O` [Example 109, 2-Cyclopentyl-6-(4-ethyl-3-(hydroxymethyl)-5-oxo-4,5-dihydro-1H-1,2,4-triazol-1-yl)-7-fluoro-4-isopropylisoquinolin-1(2H)-one]: the IC50 amounted to 9 nM in test [1] (Homo sapiens, MOLM-13, 72 h) and 5.37 nM on human DHODH.

As for `CCn1c(CO)nn(-c2cc3c(C(C)C)cn(-c4cc(C)cnc4Cl)c(=O)c3cc2F)c1=O` [Example 98, 2-(2-Chloro-5-methylpyridin-3-yl)-6-(4-ethyl-3-(hydroxymethyl)-5-oxo-4,5-dihydro-1H-1,2,4-triazol-1-yl)-7-fluoro-4-isopropylisoquinolin-1(2H)-one], the half-inhibitory concentration (IC50) in test [1] (Homo sapiens, MOLM-13, 72 h) was determined as 50 nM; on human DHODH, 6.29 nM.

For the molecule `CCn1c(CO)nn(-c2cc3c(C(C)C)cn(-c4ccccc4C)c(=O)c3cc2F)c1=O` [Example 22, 6-(4-Ethyl-3-(hydroxymethyl)-5-oxo-4,5-dihydro-1H-1,2,4-triazol-1-yl)-7-fluoro-4-isopropyl-2-(o-tolyl)isoquinolin-1(2H)-one], the half-inhibitory concentration (IC50) is 0.2 nM in test [1]; not above 0.2 nM in test [1] (Homo sapiens, MOLM-13, 72 h); 0.396 nM at human DHODH.

For the molecule `C=C(C)c1cn(-c2cccc(F)c2C)c(=O)c2cc(F)c(-n3nc(CO)n(CC)c3=O)cc12` [Example 86, 6-(4-Ethyl-3-(hydroxymethyl)-5-oxo-4,5-dihydro-1H-1,2,4-triazol-1-yl)-7-fluoro-2-(3-fluoro-2-methylphenyl)-4-(prop-1-en-2-yl)isoquinolin-1(2H)-one], the IC50 was determined as 3 nM in test [1] (Homo sapiens, MOLM-13, 72 h) and 1.19 nM on human DHODH.

Take `CCn1c(CO)nn(-c2cc3c(C(C)C)cn(-c4c(C)cnc(OC)c4C)c(=O)c3cc2F)c1=O` [Example 78, 6-(4-Ethyl-3-(hydroxymethyl)-5-oxo-4,5-dihydro-1H-1,2,4-triazol-1-yl)-7-fluoro-4-isopropyl-2-(2-methoxy-3,5-dimethylpyridin-4-yl)isoquinolin-1(2H)-one]: the IC50 in test [1] (Homo sapiens, MOLM-13, 72 h) is 20 nM; at human DHODH it was 2.34 nM.

As to `C=C(c1cn(-c2c(F)cccc2Cl)c(=O)c2ccc(-n3nc(CO)n(CC)c3=O)cc12)C(F)(F)F` [Example 6, 2-(2-Chloro-6-fluorophenyl)-6-(4-ethyl-3-(hydroxymethyl)-5-oxo-4,5-dihydro-1H-1,2,4-triazol-1-yl)-4-(3,3,3-trifluoroprop-1-en-2-yl)isoquinolin-1(2H)-one], the IC50 in test [1] (Homo sapiens, MOLM-13, 72 h) is 1 nM; at human DHODH, 1.94 nM.

With `CCn1c(CO)nn(-c2cc3c(C(C)C)cn([C@@H]4CCCC[C@H]4C)c(=O)c3cc2F)c1=O` (stereo in doubt) [Example 120, 6-(4-Ethyl-3-(hydroxymethyl)-5-oxo-4,5-dihydro-1H-1,2,4-triazol-1-yl)-7-fluoro-4-isopropyl-2-((1R*,2R*)-2-methylcyclohexyl)isoquinolin-1(2H)-one], the IC50 in test [1] (Homo sapiens, MOLM-13, 72 h) came out at 1 nM; at human DHODH, 1.68 nM.

On to `C=C(C)c1cn(-c2c(C)cnc(OC)c2C)c(=O)c2cc(F)c(-n3nc(CO)n(CC)c3=O)cc12` [Example 71, 6-(4-Ethyl-3-(hydroxymethyl)-5-oxo-4,5-dihydro-1H-1,2,4-triazol-1-yl)-7-fluoro-2-(2-methoxy-3,5-dimethylpyridin-4-yl)-4-(prop-1-en-2-yl)isoquinolin-1(2H)-one], for which the IC50 worked out at 10 nM in test [1] (Homo sapiens, MOLM-13, 72 h) and 2.02 nM on human DHODH.

With `CCn1c(CO)nn(-c2cc3c([C@H](C)C(F)(F)F)cn(-c4ccccc4C)c(=O)c3cc2F)c1=O` [Example 101, (S)-6-(4-Ethyl-3-(hydroxymethyl)-5-oxo-4,5-dihydro-1H-1,2,4-triazol-1-yl)-7-fluoro-2-(o-tolyl)-4-(1,1,1-trifluoropropan-2-yl)isoquinolin-1(2H)-one], the 50% inhibitory concentration (IC50) is 0.4 nM in test [1] (Homo sapiens, MOLM-13, 72 h) and 1.19 nM at human DHODH.

As for `[2H]C([2H])([2H])c1ccccc1-n1cc(C(C)C)c2cc(-n3nc(CO)n(CC)c3=O)c(F)cc2c1=O` [Example 93, 6-(4-Ethyl-3-(hydroxymethyl)-5-oxo-4,5-dihydro-1H-1,2,4-triazol-1-yl)-7-fluoro-4-isopropyl-2-(2-(methyl-d3)phenyl)isoquinolin-1(2H)-one], the IC50 worked out at 0.6 nM in test [1] (Homo sapiens, MOLM-13, 72 h) and 0.463 nM on human DHODH.

`C=C(C)c1cn(-c2ccccc2C)c(=O)c2cc(F)c(-n3nc(CO)n(CC)c3=O)nc12` [Example 32, 2-(4-Ethyl-3-(hydroxymethyl)-5-oxo-4,5-dihydro-1H-1,2,4-triazol-1-yl)-3-fluoro-8-(prop-1-en-2-yl)-6-(o-tolyl)-1,6-naphthyridin-5(6H)-one]: the half-inhibitory concentration (IC50) in test [1] (Homo sapiens, MOLM-13, 72 h) was 2 nM; at human DHODH, 1.01 nM.

Source of the values: patent US11505536B2, “Dihydroorotate dehydrogenase inhibitors” (Janssen Biotech, Inc., priority 2019, dated 2022).
